Reference: patent US20140227303A1, “METHODS FOR DIAGNOSING AND MONITORING DISEASES OR CONDITIONS USING DISEASE MODIFIED BIOMOLECULES AND MEASUREMENT OF A FUNCTIONAL IMMUNE RESPONSE” (VIRACOR-IBT LABORATORIES, priority 2011, published 2014)
“Also recorded” adds a separate entry of the source. Like-named read-outs stand apart in the source and are kept apart here. Square brackets hold non-standard residues; d marks the D form. Ends that are not written are not given here. Peptide text beside a SMILES is read from it. Cit = NC(=O)NCCC[C@H](N)C(=O)O

Legend:
PBMCs from RA patients = test: Cellular stimulation assay: PBMCs incubated with individual peptides DMB 1001-DMB 1010, cytokines in supernatant by AlphaLisa; type: cell-based, human; details: peptide 10 μg/ml, 20 hrs incubation
Description: Experiment 1: Cytokine Production after Stimulation of PBMCs from RA Patients with Individual Peptides DMB 1001-DMB 1010
Experimental setting: Peripheral blood mononuclear cells (PBMCs) were prepared from freshly collected blood using a Ficoll gradient method. The cellular stimulation assay was performed by incubation of PBMCs with the individual peptides DMB 1001-DMB 1010 at a concentration of 10 μg/ml. Approximately 300,000 to 500,000 PBMC cells were used for each stimulation assay in a cell culture AIM V serum free medium (Life Technologies) within a 96 well round bottom plate. TNFα, IL6 and IL1b concentrations in culture supernatants were determined using the AlphaLisa® method after 20 hrs of incubation.

[1] = Peptide solubility in water; type: physicochemical
PBMCs = test: Cellular stimulation assay: PBMCs incubated with individual peptides DMB 1011 to DMB 1016, TNFα and IL6 by AlphaLisa; type: cell-based, human; details: for Stimulation response of peptides with same sequence but only one or two citrullines (in words): compared with fully citrullinated peptide; for Stimulation of cells to produce TNF and IL-6 (in words): fibrinogen based peptides with 3 citrulline residues
Description: Experiment 2. Cytokine Production after PBMC Stimulation Using Individual Peptides from DMB 1011 to DMB 1016
Experimental setting: Peripheral blood mononuclear cells (PBMCs) were prepared from freshly collected blood using a Ficoll gradient method. The cellular stimulation assay was performed by incubating PBMCs with individual peptides DMB 1011 to DMB 1016. Approximately 300,000 to 500,000 PBMC cells were used for each stimulation assay in a cell culture AIM V serum free medium (Life Technologies) within a 96 well round bottom plate. Concentrations of TNFα and IL6 in culture supernatants were determined after 20 hrs incubation using the AlphaLisa® method.

Molecule | TNFα concentration in culture supernatant (PBMCs from RA patients; PBMC Sample 1) | TNFα concentration in culture supernatant (PBMCs from RA patients; PBMC Sample 2) | also measured
VYATRSSAVRLRSSVP [DMB 1002, Vimentin-derived peptide, not citrullinated] | 7.7 pg/mL | 2.7 pg/mL | IL1b concentration in cell culture (PBMCs from RA patients; PBMC Sample 1): 1; IL6 concentration in cell culture (PBMCs from RA patients; PBMC Sample 1): 0; IL1b concentration in cell culture (PBMCs from RA patients; PBMC Sample 2): 0; IL6 concentration in cell culture (PBMCs from RA patients; PBMC Sample 2): 0
CC(C)C[C@H](NC(=O)[C@H](CCCNC(N)=O)NC(=O)[C@@H](NC(=O)[C@H](C)NC(=O)[C@H](CO)NC(=O)[C@H](CO)NC(=O)[C@H](CCCNC(N)=O)NC(=O)[C@@H](NC(=O)[C@H](C)NC(=O)[C@H](Cc1ccc(O)cc1)NC(=O)[C@@H](N)C(C)C)[C@@H](C)O)C(C)C)C(=O)N[C@@H](CCCNC(N)=O)C(=O)N[C@@H](CO)C(=O)N[C@@H](CO)C(=O)N[C@H](C(=O)N1CCC[C@H]1C(=O)O)C(C)C [DMB 1001, VYAT[Cit]SSAV[Cit]L[Cit]SSVP] (H-VYAT[Cit]SSAV[Cit]L[Cit]SSVP-OH; N-terminus and C-terminus assumed) |  |  | Water solubility (in words) [1]: not water soluble
KIHA[Cit]EIFDS[Cit]GNPTVE [DMB 1009] | 5.0 pg/mL | 6.4 pg/mL | 
GGVYATRSSAV[Cit]L[Cit]SSVP [DMB 1013] |  |  | Stimulation response of peptides with same sequence but only one or two citrullines (in words) (PBMCs): greatly diminished
NEEGFFSA[Cit]GHRPLDKK [DMB 1003] | 4.1 pg/mL | 2.2 pg/mL | 
GP[Cit]VVE[Cit]HQSACKDS [DMB 1007] | 4.3 pg/mL | 4.6 pg/mL | 
HQCHQESTRGRSRGRCGRSGS [DMB 1006, Filaggrin peptide, not citrullinated] | 2.7 pg/mL | 7.6 pg/mL | 
GGVYATRSSAV[Cit]LRSSVP [DMB 1014] |  |  | Stimulation response of peptides with same sequence but only one or two citrullines (in words) (PBMCs): greatly diminished; Stimulation of cells to produce TNF and IL-6 (in words) (PBMCs): failed to stimulate cells
KIHAREIFDSRGNPTVE [DMB 1010, Alpha enolase peptide, not citrullinated] | 2.3 pg/mL | 3.6 pg/mL | 
GGVYAT[Cit]SSAVRL[Cit]SSVP [DMB 1012] |  |  | Stimulation response of peptides with same sequence but only one or two citrullines (in words) (PBMCs): greatly diminished
NEEGFFSARGHRPLDKK [DMB 1004, Fibrinogen beta chain peptide, not citrullinated] | 2.5 pg/mL | 6.7 pg/mL | 
lipopolysaccharide [LPS, reference compound] | 1708.9 pg/mL | 508.9 pg/mL | 
GPRVVERHQSACKDS [DMB 1008, Fibrinogen alpha chain peptide, not citrullinated] | 7.1 pg/mL | 7.5 pg/mL | 
GGV[Cit]GP[Cit]VVE[CIT]HQSACKD (GGV[Cit]GP[Cit]VVE[Cit]HQSACKD) [DMB 1015] |  |  | Stimulation of cells to produce TNF and IL-6 (in words) (PBMCs): failed to stimulate cells
HQCHQEST[Cit]GRSRGRCGRSGS (cysteine pairing not given here) [DMB 1005] | 2.1 pg/mL | 3.6 pg/mL | 
CC(C)C[C@H](NC(=O)[C@H](CCCNC(N)=O)NC(=O)[C@@H](NC(=O)[C@H](C)NC(=O)[C@H](CO)NC(=O)[C@H](CO)NC(=O)[C@H](CCCNC(N)=O)NC(=O)[C@@H](NC(=O)[C@H](C)NC(=O)[C@H](Cc1ccc(O)cc1)NC(=O)[C@@H](NC(=O)CNC(=O)CN)C(C)C)[C@@H](C)O)C(C)C)C(=O)N[C@@H](CCCNC(N)=O)C(=O)N[C@@H](CO)C(=O)N[C@@H](CO)C(=O)N[C@H](C(=O)N1CCC[C@H]1C(=O)O)C(C)C [DMB 1011, GGVYAT[Cit]SSAV[Cit]L[Cit]SSVP] |  |  | Water solubility (in words) [1]: improved the peptide solubility in water; also recorded: water soluble; Water solubility (in words) ([1]; listed as SEQ ID NO: 11): increases the water solubility
